Where two headings read alike, the source gives them in different places.
Columns and labels:
Btk = Btk (Homo sapiens, UniProt Q06187); assay: Btk acellular kinase assay (TR-FRET); type: biochemical
DHL-6 cells = assay: Growth of DHL-6 cells (Alamar Blue, FIG. 3); type: cell-based; conditions: 3E4 cells/well, complete media, 0.1% DMSO
NCI-H460 = assay: Cytotoxicity NCI-H460; type: cell-based; conditions: Homo sapiens, Lung
CRL-8062 = assay: Cytotoxicity CRL-8062; type: cell-based; conditions: Myeloma
Raji = assay: Cytotoxicity Raji; type: cell-based; conditions: Homo sapiens, Lymphoma
SK-BR3 = assay: Cytotoxicity SK-BR3; type: cell-based; conditions: Homo sapiens, SK-BR-3; Breast
DLCL2 = assay: Cytotoxicity DLCL2; type: cell-based; conditions: Lymphoma
pERK in DOHH2 cells = assay: Basal pERK levels in unstimulated DOHH2 cells; type: cell-based; conditions: Homo sapiens, DOHH-2, read-out: decrease of pERK levels IC50
Excerpt: (§1) To identify biomarkers that correlate with response to Compound 4, phosphorylation events in the BCR signal transduction pathway were investigated. […].
. However, when we examined basal phosphorylation levels, we found higher basal phosphorylation in DOHH2 compared to Ramos, with phospho-ERK in particular indicating higher levels of basal or tonic signaling in DOHH2. […]

MDA-MB-361 = assay: Cytotoxicity MDA-MB-361; type: cell-based; conditions: Homo sapiens, Breast
MDA-MB-468 = assay: Cytotoxicity MDA-MB-468; type: cell-based; conditions: Homo sapiens, Breast
Ramos = assay: Sensitivity of Ramos cell line; type: cell-based, human
Excerpt: as §1

MDA-MB-453 = assay: Cytotoxicity MDA-MB-453; type: cell-based; conditions: Homo sapiens, Breast
MDA-MB-231 = assay: Cytotoxicity MDA-MB-231; type: cell-based; conditions: Homo sapiens, Breast
A549 = assay: Cytotoxicity A549; type: cell-based; conditions: Homo sapiens, Lung
DHL-6 = assay: Cytotoxicity DHL-6; type: cell-based; conditions: Lymphoma
Egr-1 = assay: Expression of ERK transcriptional target Egr-1; type: cell-based; conditions: 1 uM
[1] = system: Btk expressing B cell lymphoma cell lines; assay: Panel of nine Btk expressing B cell lymphoma cell lines; type: cell-based
Mino = assay: Cytotoxicity Mino; type: cell-based; conditions: Homo sapiens, Lymphoma
BT-549 = assay: Cytotoxicity BT-549; type: cell-based; conditions: Homo sapiens, Breast
DOHH2 = assay: Cytotoxicity DOHH2; type: cell-based; conditions: for GI50: Homo sapiens, DOHH-2, Lymphoma
JAK3 = JAK3 (Homo sapiens, UniProt P52333); assay: Panel of kinases: JAK3; type: biochemical; conditions: Cys: Y
ITK = ITK (Homo sapiens, UniProt Q08881); assay: Panel of kinases: ITK; type: biochemical; conditions: Cys: Y
BLK = BLK (Homo sapiens, UniProt P51451); assay: Panel of kinases: BLK; type: biochemical; conditions: Cys: Y
[2] = acellular TR-FRET kinase assay, ATP at Km, read-out: Btk IC50

Sequence of Btk (Q06187 whole entry): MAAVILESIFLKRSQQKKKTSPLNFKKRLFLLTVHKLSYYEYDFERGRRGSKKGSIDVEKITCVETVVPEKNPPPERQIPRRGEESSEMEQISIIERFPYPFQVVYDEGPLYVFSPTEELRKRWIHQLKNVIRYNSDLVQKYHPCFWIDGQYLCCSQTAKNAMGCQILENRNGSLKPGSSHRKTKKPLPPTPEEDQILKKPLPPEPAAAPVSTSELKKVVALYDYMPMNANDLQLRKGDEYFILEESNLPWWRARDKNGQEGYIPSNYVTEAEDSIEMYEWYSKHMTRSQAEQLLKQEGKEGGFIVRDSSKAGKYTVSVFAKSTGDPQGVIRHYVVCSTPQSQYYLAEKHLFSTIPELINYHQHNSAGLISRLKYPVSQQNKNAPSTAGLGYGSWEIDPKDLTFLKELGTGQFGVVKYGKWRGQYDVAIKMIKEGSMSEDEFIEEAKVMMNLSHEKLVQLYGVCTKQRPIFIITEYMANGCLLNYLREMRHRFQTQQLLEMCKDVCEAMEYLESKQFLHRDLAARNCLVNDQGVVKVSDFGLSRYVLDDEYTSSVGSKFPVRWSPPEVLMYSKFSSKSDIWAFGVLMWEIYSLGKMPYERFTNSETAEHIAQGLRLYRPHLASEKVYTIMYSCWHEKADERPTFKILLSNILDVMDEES
Sequence of JAK3 (P52333 whole entry): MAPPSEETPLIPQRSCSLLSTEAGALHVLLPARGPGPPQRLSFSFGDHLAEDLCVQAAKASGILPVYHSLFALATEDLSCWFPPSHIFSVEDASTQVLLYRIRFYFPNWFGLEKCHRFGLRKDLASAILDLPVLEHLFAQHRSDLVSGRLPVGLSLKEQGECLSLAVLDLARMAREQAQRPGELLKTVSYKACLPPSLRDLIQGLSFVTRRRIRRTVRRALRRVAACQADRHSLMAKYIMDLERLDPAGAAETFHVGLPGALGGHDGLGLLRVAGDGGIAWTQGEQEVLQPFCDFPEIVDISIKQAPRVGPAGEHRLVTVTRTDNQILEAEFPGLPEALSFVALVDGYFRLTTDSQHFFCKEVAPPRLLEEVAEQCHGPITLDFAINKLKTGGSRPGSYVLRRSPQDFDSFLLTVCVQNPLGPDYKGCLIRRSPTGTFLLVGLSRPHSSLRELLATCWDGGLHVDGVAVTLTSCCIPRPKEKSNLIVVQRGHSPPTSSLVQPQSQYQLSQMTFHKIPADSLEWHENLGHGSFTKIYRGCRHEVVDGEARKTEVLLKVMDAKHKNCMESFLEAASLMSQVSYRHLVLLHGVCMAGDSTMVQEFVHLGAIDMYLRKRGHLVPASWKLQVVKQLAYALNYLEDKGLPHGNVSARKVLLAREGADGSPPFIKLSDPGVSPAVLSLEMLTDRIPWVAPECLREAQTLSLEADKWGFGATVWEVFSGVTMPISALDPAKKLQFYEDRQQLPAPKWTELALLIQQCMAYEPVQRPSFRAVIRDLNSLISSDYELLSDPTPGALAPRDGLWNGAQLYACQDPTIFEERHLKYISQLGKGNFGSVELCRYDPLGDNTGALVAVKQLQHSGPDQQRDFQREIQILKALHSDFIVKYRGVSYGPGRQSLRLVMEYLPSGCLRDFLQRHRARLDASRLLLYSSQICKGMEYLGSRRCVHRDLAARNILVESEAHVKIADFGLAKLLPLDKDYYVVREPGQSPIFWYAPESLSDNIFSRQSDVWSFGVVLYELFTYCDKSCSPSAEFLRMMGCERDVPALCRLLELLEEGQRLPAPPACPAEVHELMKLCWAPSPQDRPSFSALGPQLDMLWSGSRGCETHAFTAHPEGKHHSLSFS
Sequence of ITK (Q08881 whole entry): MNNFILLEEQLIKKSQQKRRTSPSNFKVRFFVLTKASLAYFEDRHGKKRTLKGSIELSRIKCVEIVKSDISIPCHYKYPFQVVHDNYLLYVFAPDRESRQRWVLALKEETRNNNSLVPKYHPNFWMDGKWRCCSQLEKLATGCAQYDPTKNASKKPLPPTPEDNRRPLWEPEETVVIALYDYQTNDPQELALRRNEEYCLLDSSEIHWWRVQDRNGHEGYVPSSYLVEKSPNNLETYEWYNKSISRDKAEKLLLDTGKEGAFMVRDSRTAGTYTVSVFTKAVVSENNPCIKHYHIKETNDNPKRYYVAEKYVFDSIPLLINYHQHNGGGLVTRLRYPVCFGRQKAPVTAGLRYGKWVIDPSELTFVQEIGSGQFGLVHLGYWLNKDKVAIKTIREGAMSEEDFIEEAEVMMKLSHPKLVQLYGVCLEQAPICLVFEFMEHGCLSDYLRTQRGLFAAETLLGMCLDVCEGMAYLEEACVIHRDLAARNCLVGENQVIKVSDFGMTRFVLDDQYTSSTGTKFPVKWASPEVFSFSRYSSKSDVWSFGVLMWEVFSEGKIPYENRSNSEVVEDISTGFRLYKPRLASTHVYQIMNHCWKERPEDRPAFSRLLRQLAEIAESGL
Sequence of BLK (P51451 whole entry): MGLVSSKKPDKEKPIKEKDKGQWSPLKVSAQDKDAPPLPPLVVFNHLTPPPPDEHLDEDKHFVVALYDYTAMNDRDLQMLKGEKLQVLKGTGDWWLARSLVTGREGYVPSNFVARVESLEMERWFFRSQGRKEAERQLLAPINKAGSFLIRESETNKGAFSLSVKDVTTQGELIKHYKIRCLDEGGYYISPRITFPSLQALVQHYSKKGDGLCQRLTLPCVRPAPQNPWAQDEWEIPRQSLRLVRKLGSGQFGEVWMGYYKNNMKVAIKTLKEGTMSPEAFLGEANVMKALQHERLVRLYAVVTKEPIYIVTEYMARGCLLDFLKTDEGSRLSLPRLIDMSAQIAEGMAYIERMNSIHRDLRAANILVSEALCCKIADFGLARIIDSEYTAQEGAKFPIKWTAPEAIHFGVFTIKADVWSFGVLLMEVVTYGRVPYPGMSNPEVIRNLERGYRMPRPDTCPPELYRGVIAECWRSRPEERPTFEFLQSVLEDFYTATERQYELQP

SMILES: C=CC(=O)N1CC[C@@H](n2nc(-c3ccc(Oc4ccccc4)cc3)c3c(N)ncnc32)C1 [Compound 11, 1-((R)-3-(4-amino-3-(4-phenoxyphenyl)-1H-pyrazolo[3,4-d]pyrimidin-1-yl)pyrrolidin-1-yl)prop-2-en-1-one]
- IC50 (Btk; [2]): 1.6 nM

SMILES: C/C=C/C(=O)N1CCCC(n2nc(-c3ccc(Oc4ccccc4)cc3)c3c(N)ncnc32)C1 (centres unmarked) [Compound 5, (E)-1-(3-(4-amino-3-(4-phenoxyphenyl)-1H-pyrazolo[3,4-d]pyrimidin-1-yl)piperidin-1-yl)but-2-en-1-one]
- fold less potent than 4 (Btk; Btk potency relative to compound 4): 28 fold
- IC50 (Btk; [2]): 20 nM

SMILES: C#CC(=O)N1CCCC(n2nc(-c3ccc(Oc4ccccc4)cc3)c3c(N)ncnc32)C1 (centres unmarked) [Compound 8, 1-(3-(4-amino-3-(4-phenoxyphenyl)-1H-pyrazolo[3,4-d]pyrimidin-1-yl)piperidin-1-yl)prop-2-yn-1-one]
- IC50 (Btk): 0.72 nM

SMILES: CN(C)C/C=C/C(=O)N1CCC[C@@H](n2nc(-c3ccc(Oc4ccccc4)cc3)c3c(N)ncnc32)C1 [Compound 15, (E)-1-(3-(4-amino-3-(4-phenoxyphenyl)-1H-pyrazolo[3,4-d]pyrimidin-1-yl)piperidin-1-yl)-4-(dimethylamino)but-2-en-1-one]
- growth of DHL-6 cells (DHL-6 cells): inhibit growth

SMILES: C=CC(=O)N1CCCC(n2nc(-c3ccc(Oc4ccccc4)cc3)c3c(N)ncnc32)C1 (centres unmarked) [Compound 4, 1-(3-(4-amino-3-(4-phenoxyphenyl)-1H-pyrazolo[3,4-d]pyrimidin-1-yl)piperidin-1-yl)prop-2-en-1-one]
- GI50 (NCI-H460): > 10 µM
- GI50 (CRL-8062): > 10 µM
- GI50 (Raji): > 10 µM
- GI50 (SK-BR3): 0.44 µM
- GI50 (DLCL2): 1.3 µM
- IC50 (pERK in DOHH2 cells): < 10 nM
- GI50 (MDA-MB-361): > 10 µM
- GI50 (MDA-MB-468): > 10 µM
- sensitivity of cell line Ramos (Ramos): resistant
- GI50 (MDA-MB-453): < 0.001 µM
- GI50 (MDA-MB-231): > 10 µM
- GI50 (A549): > 10 µM
- GI50 (DHL-6): 0.75 µM
- time within which Egr-1 expression is reduced (Egr-1): ≤ 1 h
- GI50 ([1]; B-cell, 5 of seven lines with high basal pERK, read-out: GI50 of sensitive cell lines): < 1300 nM
- response of cell lines with low pERK levels ([1]; two cell lines with low pERK levels): resistant
- GI50 (Mino): 1.9 µM
- GI50 (BT-549): > 10 µM
- sensitivity of cell line DOHH2 (DOHH2): sensitive
- GI50 (DOHH2): 0.77 µM

SMILES: C=CC(=O)N1CC[C@H](n2nc(-c3ccc(Oc4ccccc4)cc3)c3c(N)ncnc32)C1 [Compound 12, 1-((S)-3-(4-amino-3-(4-phenoxyphenyl)-1H-pyrazolo[3,4-d]pyrimidin-1-yl)pyrrolidin-1-yl)prop-2-en-1-one]
- IC50 (Btk; [2]): 1.9 nM

SMILES: C=CC(=O)N[C@H]1CC[C@@H](n2nc(-c3ccc(Oc4ccccc4)cc3)c3c(N)ncnc32)CC1 [Compound 10, N-((1s,4s)-4-(4-amino-3-(4-phenoxyphenyl)-1H-pyrazolo[3,4-d]pyrimidin-1-yl)cyclohexyl)acrylamide]
- GI50 (NCI-H460): > 10 µM
- GI50 (CRL-8062): > 10 µM
- GI50 (Raji): > 10 µM
- GI50 (SK-BR3): 0.24 µM
- IC50 (JAK3): 8280 nM
- GI50 (DLCL2): 4.82 µM
- IC50 (ITK): 910 nM
- GI50 (MDA-MB-361): > 10 µM
- GI50 (MDA-MB-468): > 10 µM
- GI50 (MDA-MB-453): 0.54 µM
- GI50 (MDA-MB-231): > 10 µM
- GI50 (A549): 3.13 µM
- GI50 (DHL-6): 0.009 µM
- IC50 (BLK): 0.17 nM
- GI50 (Mino): 0.12 µM
- GI50 (BT-549): 2.79 µM
- GI50 (DOHH2): 0.011 µM

SMILES: C=CC(=O)N1CCC(n2nc(-c3ccc(Oc4ccccc4)cc3)c3c(N)ncnc32)CC1 [Compound 9, 1-(4-(4-amino-3-(4-phenoxyphenyl)-1H-pyrazolo[3,4-d]pyrimidin-1-yl)piperidin-1-yl)prop-2-en-1-one]
- IC50 (Btk; [2]): 3.6 nM
